From PubChem BioAssay (NCI) come the findings set out here.

Test systems include DLD-1 colon; KM20L2 colon; LXFL 529 NSCLC; M19-MEL melanoma; SNB-78 CNS; XF 498 CNS; HOP-18 NSCLC; RXF-631 renal; MDA-N.
Holding throughout (assay): growth of human tumour cells (NCI), 48 h

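In this assay, cells in 96-well plates receive the compound at five concentrations for 48 hours. Endpoints are linearly interpolated between the surrounding concentrations. Here, GI50 denotes the concentration required for 50% inhibition of growth. TGI denotes the concentration required for complete inhibition of growth.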

Turning to `COc1cc(Cc2cc(OC)c(OC)c(OC)c2)ccc1O`, the TGI with DLD-1 colon, in the assay with KM20L2 colon, in the assay with LXFL 529 NSCLC, with M19-MEL melanoma, with SNB-78 CNS and in the assay with XF 498 CNS was > 100 µM throughout.

With `CSc1nc(NC2OC(COC(C)=O)C(OC(C)=O)C(OC(C)=O)C2OC(C)=O)c2c(OC(C)=O)c(C)c(=O)oc2n1` (configuration not stated), the TGI in the assay on DLD-1 colon, in the assay with HOP-18 NSCLC, in the assay on KM20L2 colon, with LXFL 529 NSCLC, with M19-MEL melanoma and with SNB-78 CNS was > 100 µM throughout. Moreover, the TGI with XF 498 CNS is > 100 µM.

For `O=C1C2=C(CC3C(C2)C3(Br)Br)C(=O)C2=C1CC1C(C2)C1(Br)Br` (configuration not stated), the TGI with DLD-1 colon, in the assay on HOP-18 NSCLC, with KM20L2 colon, in the assay on LXFL 529 NSCLC, in the assay with M19-MEL melanoma and in the assay with RXF-631 renal was > 100 µM throughout. The TGI with SNB-78 CNS and in the assay on XF 498 CNS was > 100 µM each time.

Regarding `Cc1cccc(C(C)(C)C)c1NC(=O)CCc1n[nH]c(=S)o1`, the TGI with DLD-1 colon, with HOP-18 NSCLC, in the assay on KM20L2 colon, with LXFL 529 NSCLC, with M19-MEL melanoma and in the assay with SNB-78 CNS was > 100 µM throughout.

With `COC(=O)C(=O)C(C(=O)C(=O)Nc1ccc(C)cc1C)c1nc2ccccc2[nH]c1=O` (configuration not stated), the TGI with DLD-1 colon, in the assay with HOP-18 NSCLC, with KM20L2 colon, with LXFL 529 NSCLC, in the assay with M19-MEL melanoma and with RXF-631 renal was > 100 µM each time. Further, the TGI in the assay with SNB-78 CNS and with XF 498 CNS was > 100 µM each time.

For the molecule `COc1ccc(C(=O)O)c(Cc2cccc3ccccc23)c1`, the TGI with DLD-1 colon, with HOP-18 NSCLC, with KM20L2 colon, in the assay on LXFL 529 NSCLC, with M19-MEL melanoma and with RXF-631 renal was > 100 µM in each case.

Regarding `NC1C2(CCCCCC2)NC(=O)C12CCCCCC2` (configuration not stated), the TGI in the assay with DLD-1 colon, with HOP-18 NSCLC, in the assay on LXFL 529 NSCLC, in the assay on RXF-631 renal, with SNB-78 CNS and in the assay with XF 498 CNS was > 100 µM in each case.

For `Cc1cc(C2CCCCC2)n(O)c(=O)c1`, the TGI in the assay with DLD-1 colon, in the assay on HOP-18 NSCLC, in the assay on KM20L2 colon, in the assay on LXFL 529 NSCLC, with M19-MEL melanoma and with RXF-631 renal was > 100 µM in each case. In addition, the TGI in the assay with XF 498 CNS came out at 35.8 µM.

`COc1cc([N+](=O)[O-])ccc1NC(=O)C(F)(F)F`: in the assay on MDA-N, the TGI is > 100 µM.

Consider `CCC(C)(O)c1cn(-c2cccc(S(=O)(=O)O)c2)nn1` (configuration not stated), for which the TGI in the assay with DLD-1 colon, in the assay with HOP-18 NSCLC, in the assay on KM20L2 colon, with LXFL 529 NSCLC, in the assay on SNB-78 CNS and with XF 498 CNS was > 100 µM each time.

Turning to `N#Cc1cnsc1`, the TGI in the assay on DLD-1 colon, with HOP-18 NSCLC, in the assay with KM20L2 colon, with LXFL 529 NSCLC, in the assay with M19-MEL melanoma and with RXF-631 renal was > 100 µM throughout. Besides, the TGI with SNB-78 CNS and in the assay on XF 498 CNS was > 100 µM throughout.

As to `Nc1c(-c2ccc(Br)cc2)[n+]([O-])c2ccccc2[n+]1[O-]`, the TGI with DLD-1 colon, in the assay on HOP-18 NSCLC, in the assay on KM20L2 colon, in the assay on LXFL 529 NSCLC, in the assay with RXF-631 renal and with SNB-78 CNS was > 100 µM in each case.

As for `NCCCNCCSSCCCCS(=O)O`, the TGI in the assay with DLD-1 colon is > 100 µM; in the assay on HOP-18 NSCLC, > 100 µM; in the assay with KM20L2 colon, > 100 µM; in the assay with LXFL 529 NSCLC it was 92.2 µM; in the assay with M19-MEL melanoma it was 40.5 µM; with RXF-631 renal, > 100 µM. Further, the TGI with SNB-78 CNS was > 100 µM; with XF 498 CNS, 37.4 µM.

As to `O=C(O)c1cc(N=Nc2ccc([As](=O)(O)O)cc2)ccc1O`, the TGI with MDA-N was > 100 µM.

`Cc1ccc(NC(=O)C2C(=O)N(c3ccc(C)c(C)c3)C(=O)/C2=N/O)cc1C` (configuration not stated): the TGI in the assay on DLD-1 colon, with HOP-18 NSCLC, in the assay on KM20L2 colon, with LXFL 529 NSCLC, with RXF-631 renal and with SNB-78 CNS was > 100 µM throughout. Moreover, the TGI in the assay with XF 498 CNS was > 100 µM.

Take `CC(C)=[CH][Sb]([Br])([CH]=C(C)C)([CH]=C(C)C)[CH]=C(C)C`: the GI50 in the assay with DLD-1 colon was 37.3 µM; in the assay on KM20L2 colon it was 13.1 µM; in the assay with LXFL 529 NSCLC, 6.58 µM; in the assay on M19-MEL melanoma, 6.14 µM; in the assay with XF 498 CNS, 16.4 µM. In addition, the TGI in the assay on DLD-1 colon, with KM20L2 colon, with LXFL 529 NSCLC, with M19-MEL melanoma and with XF 498 CNS was > 100 µM throughout.

As for `CC(=O)[O][Hg][c]1c(C)c(C)c(C)c(C)c1C`, in the assay with MDA-N, the GI50 is 1370 nM and the TGI was 2.69 µM.

In turn, `CNC1C(=O)C(C)C(O)(C(CC(C)C(O)/C=C/C=C/CNC(=O)C(C)(C)C(O)\C(C)=C/C=C\C=C\Cc2cnc(C)o2)OC)C12C(=O)OC2COC` (configuration not stated) (tested in a mixture with another compound) displayed a TGI in the assay with MDA-N of 71.4 µM.

`O=S(O)CCCCSSCCCCSSCCCCS(=O)O`: the TGI in the assay on DLD-1 colon was > 100 µM; in the assay on HOP-18 NSCLC, > 100 µM; in the assay with KM20L2 colon, > 100 µM; in the assay on LXFL 529 NSCLC it was 28.4 µM; in the assay with M19-MEL melanoma it was > 100 µM; in the assay on RXF-631 renal, > 100 µM. Further, the TGI in the assay with SNB-78 CNS was determined as 70.5 µM; in the assay with XF 498 CNS it was 21.4 µM.
